Reference: ChEMBL document CHEMBL5230176, “X-ray structure of human aldo-keto reductase 1C3 in complex with a bile acid fused tetrazole inhibitor: experimental validation, molecular docking and structural analysis” (RSC Med Chem, 2023)
Activity calls are given as the source filed them. No cut-off for these calls is given here.

target: T1, Aldo-keto reductase family 1 member C3 (Homo sapiens) (UniProt P42330); experiment: Inhibition of 6 His-tagged human AKR1C3 expressed in Escherichia coli BL21 (DE3) cells using 9,10-phenanthrenequinone as substrate assessed as substrate reduction by measuring change in NADPH fluorescence at 33.3 uM incubated for 30 mins by fluorescence spectroscopic analysis relative to control
T1 sequence (whole entry): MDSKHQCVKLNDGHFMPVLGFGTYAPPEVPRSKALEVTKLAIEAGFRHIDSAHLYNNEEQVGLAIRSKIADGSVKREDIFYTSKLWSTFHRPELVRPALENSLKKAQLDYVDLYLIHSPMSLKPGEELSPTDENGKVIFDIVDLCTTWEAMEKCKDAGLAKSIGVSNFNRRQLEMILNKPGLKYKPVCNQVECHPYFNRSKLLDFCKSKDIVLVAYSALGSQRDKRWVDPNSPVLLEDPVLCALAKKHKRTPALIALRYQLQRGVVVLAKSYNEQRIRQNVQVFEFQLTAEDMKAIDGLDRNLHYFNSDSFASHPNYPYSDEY

| inhibition | SMILES |
| --- | --- |
| inactive | C[C@H](CCC(=O)O)[C@H]1CC[C@H]2[C@H]3[C@H](C[C@H](O)[C@]12C)[C@@]1(C)CC[C@@H](O)C[C@H]1Cc1nnnn13 |
| inactive | CCOC(=O)CC[C@@H](C)[C@H]1CC[C@H]2[C@H]3[C@H](CC[C@]12C)[C@@]1(C)CC[C@@H](OC(C)=O)C[C@H]1Cc1nnnn13 |

Further lines, the compound ahead of its results:

| SMILES | inhibition |
| --- | --- |
| COC(=O)CC[C@@H](C)[C@H]1CC[C@H]2[C@H]3[C@H](C[C@H](OC(C)=O)[C@]12C)[C@@]1(C)CC[C@@H](OC(C)=O)C[C@H]1Cc1nnnn13 | inactive |
| C[C@H](CCC(=O)O)[C@H]1CC[C@H]2[C@@H]3CC[C@@H]4C[C@H](O)CC[C@]4(C)[C@H]3Cc3nnnn3[C@]12C | 77.9% |
| C[C@H](CCC(=O)O)[C@H]1CC[C@H]2[C@H]3[C@H](CC[C@]12C)[C@@]1(C)CC[C@@H](O)C[C@H]1Cc1nnnn13 | 14.2% |

target: T2, Aldo-keto reductase family 1 member C2 (Homo sapiens) (UniProt P52895); experiment: Inhibition of 6 His-tagged human AKR1C2 expressed in Escherichia coli BL21 (DE3) cells using 9,10-phenanthrenequinone as substrate assessed as substrate reduction by measuring change in NADPH consumption at 40 uM incubated for 15 mins by absorbance based spectroscopic analysis relative to control
T2 sequence (whole entry): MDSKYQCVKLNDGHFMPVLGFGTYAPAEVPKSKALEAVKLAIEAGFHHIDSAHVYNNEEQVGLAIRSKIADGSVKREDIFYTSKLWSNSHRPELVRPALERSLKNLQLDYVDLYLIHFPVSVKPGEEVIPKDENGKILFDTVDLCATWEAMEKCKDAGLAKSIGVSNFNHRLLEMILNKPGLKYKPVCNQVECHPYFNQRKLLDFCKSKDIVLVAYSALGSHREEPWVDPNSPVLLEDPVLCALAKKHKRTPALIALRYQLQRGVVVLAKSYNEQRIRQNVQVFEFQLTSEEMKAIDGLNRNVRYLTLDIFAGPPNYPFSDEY

| SMILES | inhibition |
| --- | --- |
| C[C@H](CCC(=O)O)[C@H]1CC[C@H]2[C@@H]3CC[C@@H]4C[C@H](O)CC[C@]4(C)[C@H]3Cc3nnnn3[C@]12C | 13% |
